This note sets out measurements from patent publication US6872805B2 (Bristol-Myers Squibb Company, priority 2000, dated 2005).

Experiment [1] deals with HCV replicon in Huh7 cells. The experiment in a line: HCV replicon cell-based assay. Set-up: species or system HCV strain 1B. Particulars: HCV replicon, Huh7 cells, 4 days, activity ranges, read-out: EC50. The source says:
An HCV replicon whole cell system was established as described by Lohmann V, Korner F, Koch J, Herian U, Theilmann L, Bartenschlager R., Science 285(5424):110-3 (1999). This system enabled us to evaluate the effects of our HCV Protease compounds on HCV RNA replication. Briefly, using the HCV strain 1B sequence described in the Lohmann paper (Assession number:AJ238799), an HCV cDNA was generated encoding the 5′ internal ribosome entry site (IRES), the neo gene, the EMCV-IRES and the HCV nonstructural proteins, NS3-NS5B, and 3′ NTR. […] Resulting cell lines were characterized for positive and negative RNA production and protein production over time.
Huh7 cells, constitutively expressing the HCV replicon, were grown in DMEM containing 10% FCS (Fetal calf serum) and 1 mg/ml G418 (Gibco-BRL). Cells were seeded the night before (1.5×10^4 cells/well) in 96-well tissue-culture sterile plates. Compound was prepared in DMEM containing 4% FCS, 1:100 Penicillin/Streptomysin, 1:100 L-glutamine and 0.5% DMSO. Compound/DMSO mixes were added to the cells and incubated for 4 days at 37° C. After 4 days, cells were either lyzed using the Rneasy kit (Qiagen) to isolate and purify RNA for an EC50 determination or assessed for cytotoxicity using alamar Blue (Trek Diagnotstic Systems) for a CC50 reading. For an EC50 determination, purified total RNA was normalized using RiboGreen (Jones L J, Yue S T, Cheung C Y, Singer V L, Anal. Chem., 265(2):368-74 (1998)) and relative quantitation of HCV RNA expression assessed using the Taqmann procedure (Kolykhalov A A, Mihalik K, Feinstone S M, Rice C M, Journal of Virology 74, 2046-2051 (2000)). Briefly, RNA made to a volume of 5 μl (≦1 ng) was added to a 20 μl Ready-Mix containing the following: 5×EZ rTth buffer, 3 mM MnOAc2, 3 mM dNTPs, 200 nM forward primer, 600 nM reverse primer, 100 nM probe and rTth polymerase. Samples containing known concentrations of HCV RNA transcript were run as standards. Using the following cycling protocol (95° C., 1 min; 60° C., 0.5 min; 95° C., 2 min; 40 cycles of 94° C., 0.5 min, 60° C.; 1 min; and completing with 60° C., 10 min), HCV RNA expression was quantitated as described in the Perkin Elmer manual. The toxicity of compound (CC50) was determined by adding 1/10th volume of alamar Blue to the media incubating the cells. After 4 hr, the fluorescence signal from each well was read, with an excitation wavelength at 530 nm and an emission wavelength of 580 nm, using the Cytofluor Series 4000 (Perspective Biosystems).

Experiment [2] has as its target HCV NS3/4A protease complex (Hepatitis C virus genotype 1a, UniProt P27958, C1454S/C1711G). The experiment in a line: Recombinant HCV NS3/4A protease complex FRET peptide assay (strain not stated). The class given is biochemical. Particulars: strain not stated, activity ranges. The source says: The purpose of this in vitro assay was to measure the inhibition of HCV NS3 protease complexes, derived from the BMS, H77C or J416S strains, as described below, by compounds of the present invention.
Serum from an HCV-infected patient was obtained from Dr. T. Wright, San Francisco Hospital. An engineered full-length cDNA template of the HCV genome (BMS strain) was constructed from DNA fragments obtained by reverse transcription-PCR (RT-PCR) of serum RNA and using primers selected on the basis of homology between other genotype 1a strains. […] The infectious clones, H77C (1a genotype) and J4L6S (1b genotype) were obtained from R. Purcell (NIH) and the sequences are published in genebank (AAB67036, see Yanagi, M., Purcell, R. H., Emerson, S. U. and Bukh, J. Proc. Natl. Acad. Sci. U.S.A. 94(16),8738-8743 (1997); AF054247, see Yanagi, M., St Claire, M., Shapiro, M., Emerson, S. U., Purcell, R. H. and Bukh, J, Virology 244 (1), 161-172. (1998)).
The BMS, H77C and J4L6S strains were used for production of recombinant NS3/4A protease complexes. DNA encoding the recombinant HCV NS3/4A protease complex (amino acid 1027 to 1711) for these strains were manipulated as described by P. Gallinari et al. (see Gallinari P, Paolini C, Brennan D, Nardi C, Steinkuhler C, De Francesco R. Biochemistry. 38(17):5620-32, (1999)). Briefly, a three-lysine solubilizing tail was added at the 3′-end of the NS4A coding region. The cysteine in the P1 position of the NS4A-NS4B cleavage site (amino acid 1711) was changed to a glycine to avoid the proteolytic cleavage of the lysine tag. Furthermore, a cysteine to serine mutation was introduced by PCR at amino acid position 1454 to prevent the autolytic cleavage in the NS3 helicase domain. The variant DNA fragment was cloned in the pET21b bacterial expression vector and the NS3/4A complex was expressed in E. coli BL21 (DE3) following the protocol described by P. Gallinari et al. (see Gallinari P, Brennan D, Nardi C, Brunetti M, Tomei L, Steinkuhler C, De Francesco R., J Virol. 72(8):6758-69 (1998)) with modifications. Briefly, NS3/4A expression was induced with 0.5 mM IPTG for 22 hr at 20° C. […] The cells were resuspended in lysis buffer (10 mL/g) consisting of 25 mM HEPES, pH 7.5, 20% glycerol, 500 mM NaCl, 0.5% Triton-X100, 1 ug/ml lysozyme, 5 mM MgCl2, 1 ug/ml DNaseI 5 mM β-Mercaptoethanol (βME), Protease inhibitor—EDTA free, homogenized and incubated for 20 mins at 4° C. The homogenate was sonicated and clarified by ultra-centrifugation at 235000 g for 1 hr at 4° C. Imidazole was added to the supernatant to a final concentration of 15 mM and the pH adjusted to 8.0. The crude protein extract was loaded on a Ni-NTA column pre-equilibrated with buffer B (25 mM HEPES, pH 8.0, 20% glycerol, 500 mM NaCl, 0.5% Triton-X100, 15 mM imidazole, 5 mM βME). The sample was loaded at a flow rate of 1 mL/min. The column was washed with 15 column volumes of buffer C (same as buffer B except with 0.2% Triton-X100). The protein was eluted with 5 column volumes of 200 mM Imidazole in buffer.
NS3/4A protease complex-containing fractions were pooled and loaded on a desalting column Superdex-S200 pre-equilibrated with buffer D (25 mM HEPES, pH 7.5, 20% glycerol, 300 mM NaCl, 0.2% Triton-X100, 10 mM βME). Sample was loaded at a flow rate of 1 mL/min. NS3/4A protease complex-containing fractions were pooled and concentrated to approximately 0.5 mg/ml.

Where [3] appears, read: IC50, NS3/4A protease enzyme assay.

Like-named read-outs stand apart in the source and are kept apart here. Some results are limits rather than exact numbers.

Chain of HCV NS3/4A protease complex (P27958 1027-1711, stated change not applied): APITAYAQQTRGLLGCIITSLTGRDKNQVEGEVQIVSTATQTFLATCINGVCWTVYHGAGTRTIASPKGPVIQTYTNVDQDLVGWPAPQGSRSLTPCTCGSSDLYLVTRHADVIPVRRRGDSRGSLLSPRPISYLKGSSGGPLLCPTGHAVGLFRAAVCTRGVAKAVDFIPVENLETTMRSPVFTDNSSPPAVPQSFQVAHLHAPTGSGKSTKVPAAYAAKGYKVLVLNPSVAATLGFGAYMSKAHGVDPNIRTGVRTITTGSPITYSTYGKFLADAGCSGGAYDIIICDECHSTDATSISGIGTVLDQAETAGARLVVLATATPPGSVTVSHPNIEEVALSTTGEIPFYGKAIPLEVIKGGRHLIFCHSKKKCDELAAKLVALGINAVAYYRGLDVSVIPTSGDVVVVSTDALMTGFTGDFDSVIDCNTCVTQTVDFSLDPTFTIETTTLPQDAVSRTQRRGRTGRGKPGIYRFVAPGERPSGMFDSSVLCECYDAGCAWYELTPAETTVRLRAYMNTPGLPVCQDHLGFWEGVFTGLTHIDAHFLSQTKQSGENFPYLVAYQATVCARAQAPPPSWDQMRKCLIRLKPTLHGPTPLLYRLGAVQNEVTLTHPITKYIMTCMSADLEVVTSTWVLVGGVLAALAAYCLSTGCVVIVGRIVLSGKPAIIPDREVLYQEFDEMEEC
Chain of HCV NS3/4A protease complex (P27958 1027-1711, stated change not applied): as above

Broadly, the EC50 is the concentration at which the effect is half-maximal. What is called IC50 is the point on the concentration scale where inhibition reaches its midpoint. Take “1-[2S-(4-fluoro-benzenesulfonylamino)-3,3-dimethyl-butyryl]-4R-(7-methoxy-2-phenylquinolin-4-yloxy)-pyrrolidine-2S-carboxylic acid (1R-cyclopropanesulfonylaminocarbonyl -2S-vinyl-cyclopropyl)amide [Compound 119]”: in experiment [1], the EC50 was less than 500 nM. In experiment [2] (NS3/4A protease enzyme assay, read-out: IC50), the IC50 is less than 50 nM.
In the case of `CCC1C[C@]1(NC(=O)[C@@H]1C[C@@H](Oc2cc(-c3ccccc3)nc3cc(OC)ccc23)CN1C(=O)[C@@H](NC(=O)OC(C)(C)C)C(C)(C)C)C(=O)NS(=O)(=O)C1CC1` (stereo in doubt) [Compound 2, {1-[2-(1-cyclopropanesulfonylamino-carbonyl-2-ethylcyclopropylcarbamoyl)-4-(7-methoxy-2-phenyl-quinolin-4-yloxy)-pyrrolidine-1-carbonyl]-2,2-dimethylpropyl}carbamic acid tert-butyl ester], in experiment [1] (Hepatitis C virus, Huh-7, 96 h), the EC50 was less than 50 nM. For the same molecule, the IC50 in experiment [2] (setting [3]) was less than 50 nM.
On to `CCC1C[C@]1(NC(=O)[C@@H]1C[C@@H](Oc2cc(-c3ccccc3)nc3cc(OC)ccc23)CN1C(=O)[C@@H](NC(=O)OC(C)(C)C)C(C)C)C(=O)NS(=O)(=O)C1CC1` (stereo in doubt) [Compound 3, {1-[2-(1-cyclopropanesulfonylaminocarbonyl-2-ethylcyclopropylcarbamoyl)-4-(7-methoxy-2-phenylquinolin-4-yloxy)pyrrolidine-1-carbonyl]-2-methylpropyl}carbamic acid tert-butyl ester], for which, in experiment [1] (Hepatitis C virus, Huh-7, 96 h), the EC50 was less than 50 nM. The IC50 in experiment [2] (setting [3]) is less than 50 nM.
Regarding `CCC1C[C@]1(NC(=O)[C@@H]1C[C@@H](Oc2cc(-c3ccccc3)nc3cc(OC)ccc23)CN1C(=O)[C@@H](NC(=O)CC1CC1)C(C)C)C(=O)NS(=O)(=O)C1CC1` (stereo in doubt) [Compound 5, 1-[2-(2-cyclopropylacetylamino)-3-methylbutyryl]-4-(7-methoxy-2-phenylquinolin-4-yloxy)pyrrolidine-2-carboxylic acid (1-cyclopropanesulfonylaminocarbonyl-2-ethylcyclopropyl)amide], the EC50 in experiment [1] (Hepatitis C virus, Huh-7, 96 h) was less than 50 nM. The IC50 in experiment [2] (setting [3]) was less than 50 nM.
Consider `CCCNC(=O)N[C@H](C(=O)N1C[C@H](Oc2cc(-c3ccccc3)nc3cc(OC)ccc23)C[C@H]1C(=O)N[C@]1(C(=O)NS(=O)(=O)C2CC2)CC1CC)C(C)C` (stereo in doubt) [Compound 8, 4-(7-methoxy-2-phenylquinolin-4-yloxy)-1-[3-methyl-2-(3-propylureido)butyryl]pyrrolidine-2-carboxylic acid (1-cyclopropanesulfonylaminocarbonyl-2-ethylcyclopropyl)amide], for which the EC50 in experiment [1] (Hepatitis C virus, Huh-7, 96 h) was less than 50 nM. In experiment [2] (setting [3]), the IC50 is less than 50 nM.
Consider `C=CC1C[C@]1(NC(=O)[C@@H]1C[C@@H](Oc2cc(-c3ccccc3)nc3cc(OC)ccc23)CN1C(=O)[C@@H](NC(=O)OC(C)(C)C)C(C)(C)C)C(=O)NS(=O)(=O)C1CC1` (stereo in doubt) [Compound 10, {1-[2-(1-Cyclopropanesulfonylaminocarbonyl-2-vinylcyclopropylcarbamoyl)-4-(7-methoxy-2-phenylquinolin-4-yloxy)-pyrrolidine-1-carbonyl]-2,2-dimethylpropyl}carbamic acid tert-butyl ester], for which, in experiment [1] (Hepatitis C virus, Huh-7, 96 h), the EC50 was less than 50 nM. Moreover, the IC50 in experiment [2] (setting [3]) is less than 50 nM.
For the molecule `C=CC1C[C@]1(NC(=O)[C@@H]1C[C@@H](Oc2cc(-c3ccccc3)nc3cc(OC)ccc23)CN1C(=O)[C@@H](NC(=O)OC(C)(C)C)C(C)(C)C)C(=O)NS(=O)(=O)C1CCC1` (stereo in doubt) [Compound 11, {1-[2-(1-Cyclobutanesulfonylaminocarbonyl-2-vinylcyclo-propylcarbamoyl)-4-(7-methoxy-2-phenylquinolin-4-yloxy)-pyrrolidine-1-carbonyl]-2,2-dimethylpropyl}carbamic acid tert-butyl ester], the EC50 in experiment [1] (Hepatitis C virus, Huh-7, 96 h) was less than 50 nM. Besides, in experiment [2] (setting [3]), the IC50 is less than 50 nM.
Consider `C=CC1C[C@]1(NC(=O)[C@@H]1C[C@@H](Oc2cc(-c3ccccc3)nc3cc(OC)ccc23)CN1C(=O)[C@@H](NC(=O)OC(C)(C)C)C(C)(C)C)C(=O)NS(=O)(=O)C1CCCC1` (stereo in doubt) [Compound 12, {1-[2-(1-Cyclopentanesulfonylaminocarbonyl-2-vinylcyclopropylcarbamoyl)-4-(7-methoxy-2-phenylquinolin-4-yloxy)-pyrrolidine-1-carbonyl]-2,2-dimethylpropyl}carbamic acid tert-butyl ester], for which, in experiment [1] (Hepatitis C virus, Huh-7, 96 h), the EC50 was less than 500 nM. Moreover, the IC50 in experiment [2] (setting [3]) was less than 500 nM.
Regarding `C=CC1C[C@]1(NC(=O)[C@@H]1C[C@@H](Oc2cc(-c3ccccc3)nc3cc(OC)ccc23)CN1C(=O)[C@@H](NC(=O)OC(C)(C)C)C(C)(C)C)C(=O)NS(=O)(=O)C1CCCCC1` (stereo in doubt) [Compound 13, {1-[2-(1-Cyclohexanesulfonylaminocarbonyl-2-vinylcyclopropylcarbamoyl)-4-(7-methoxy-2-phenylquinolin-4-yloxy)pyrrolidine-1-carbonyl]-2,2-dimethylpropyl}carbamic acid tert-butyl ester], the EC50 in experiment [1] (Hepatitis C virus, Huh-7, 96 h) was less than 500 nM. In addition, in experiment [2] (setting [3]), the IC50 was less than 500 nM.
